Experimental data reported in US20220202911A1 (Amryt Endo, Inc., priority 2020, published 2022).

Tests used:
clinical [1] = conditions: human, in vivo; for AUC(0-t): AUC(0-12)
[2] = digoxin 0.5 mg alone (placebo)
Text: (§1) This was a single-center, randomized, single-blind, placebo-controlled study in 18 healthy subjects. Two groups of subjects were studied in a 4-treatment, 2-sequence, and crossover design. The study was comprised of a screening period, a treatment period, and a follow-up period (approximately 10-13 days following the last test condition). Subjects were randomized in a 1:1 ratio to one of 2 sequences (i.e., Group 1 or 2) of 4 test conditions (i.e., A-D) as shown in Table 1.

clinical [3] = conditions: human, plasma; for AUC(0-t): AUC(0-12)
Text: as §1

[4] = least squares geometric mean, Reference
[5] = least squares geometric mean, Test
[6] = oral, least squares geometric mean, digoxin alone (second geometric-mean column; no unit printed in Table 7)

Row | AUC0-12 increase (clinical [1]) [%] | Cmax increase (clinical [1]) [%] | Tmax (clinical [1]) [h] | change in the rate of absorption (from Tmax) (clinical [1]) | individual decreases in AUC0-12, 3 of 17 subjects (clinical [1]) | individual increases in AUC0-12, remaining 14 subjects (clinical [1]) | share of the 14 subjects with an increase in AUC0-12 that had an increase 25% (11 subjects) (clinical [1]) [%] | Tmax (clinical [1]; 20 mg) [h] | AUC(0-t) (clinical [1]; 20 mg, mean ± SD) [ng·h/mL] | AUC(0-t) (clinical [1]; [4]) [ng·h/mL] | AUC(0-t) (clinical [1]; [5]) [ng·h/mL] | Cmax (clinical [1]; [4]) [ng/mL] | Cmax (clinical [1]; [5]) [ng/mL] | Compound | Tmax, median [2] [h] | Tmax (clinical [3]; oral) [h] | AUC(0-t) (clinical [3]; oral, 0.5 mg, mean ± SD, digoxin 0.5 mg alone (placebo)) [ng·h/mL] | AUC(0-t) (clinical [3]; [6]) [ng·h/mL] | Cmax (clinical [3]; [6]) [ng/mL] | Cmax (clinical [3]; po, mean ± SD, digoxin 0.5 mg oral single dose alone (placebo; lisinopril 20 mg co-administered)) [ng/mL]
1 | 40 | 50 | 7 | no apparent change | 6.17-16.1% | 2.98-140% | 79 | 7.5 | 690 ± 207 | 661 | 923 | 83.6 | 126 | NCCCC[C@H](N[C@@H](CCc1ccccc1)C(=O)O)C(=O)N1CCC[C@H]1C(=O)O [Lisinopril, lisinopril] |  |  |  |  |  | 
2 |  |  |  |  |  |  |  |  |  |  |  |  |  | C[C@H]1O[C@@H](O[C@H]2[C@@H](O)C[C@H](O[C@H]3[C@@H](O)C[C@H](O[C@H]4CC[C@@]5(C)[C@H](CC[C@@H]6[C@@H]5C[C@@H](O)[C@]5(C)[C@@H](C7=CC(=O)OC7)CC[C@]65O)C4)O[C@@H]3C)O[C@@H]2C)C[C@H](O)[C@@H]1O [Digoxin, digoxin] | 1 | 3 | 9.14 ± 2.03 | 8.91 | 2.38 | 2.5 ± 0.71
